Data set [1] relates to AML cell lines (HL60/VCR, OCI-AML2, THP-1). The data set is described as follows: Viability of AML cell lines, MTS and Cell Titer Glo (FIGS. 2, 4, Table 2). It counts as cell-based, human. Particulars: for EC50: Homo sapiens, 24 h. The protocol: (§1) Representative human AML cell lines (FIG. 2A; upper and lower panels) HL60/VCR and (FIG. 2B; upper and lower panels) OCI-AML2 were treated with SACLAC for 24 and 48 hours. Viability was assessed by MTS assay at 24 and 48 hours and apoptosis was assessed by flow cytometry at 48 hours. Upper panels represent % viability and lower panels indicate % apoptosis.
AML cell lines and normal samples (PBMCs and/or CD34+ cells) were treated for 24 hours with SACLAC (FIG. 4A-7 cell lines) and similar AC inhibitor SABRAC (2-bromo-N-((2S,3R)-1,3-dihydroxyoctadecan-2-yl)acetamide) (FIG. 4B-four cell lines). Viability was assessed by MTS and Cell Titer Glo viability assays. EC50 values (FIG. 4C) were graphed to visualize fold-change between AML and normal cells with treatment of each compound. […] Cells tested for SABRAC were HL60/VCR and OCI-AML2 AML cell lines and two normal PBMC control samples (PBMC1 and PBMC2). The same four cell types were tested for SACLAC, as well as the AML cell line THP-1 and two normal CD34+ cell control samples (CD34+1 and CD34+2).
Next, we tested the toxicity of SACLAC and a similar published AC inhibitor SABRAC^17 to normal hematopoietic cells to ensure that AML cells are selectively targeted by the compound (FIG. 4A). […] This degree of selectivity was unexpected but extremely important for potential clinical use. […] This remarkable increase in selectivity is a surprising discovery that greatly exceeds the predicted similarity in compound behavior that one may expect with a simple substitution of one halogen for another (Cl for Br).

In a further data set the target is T1, acid ceramidase (AC) (Homo sapiens, UniProt Q13510).
T1 sequence (Q13510 143-395 limits assumed): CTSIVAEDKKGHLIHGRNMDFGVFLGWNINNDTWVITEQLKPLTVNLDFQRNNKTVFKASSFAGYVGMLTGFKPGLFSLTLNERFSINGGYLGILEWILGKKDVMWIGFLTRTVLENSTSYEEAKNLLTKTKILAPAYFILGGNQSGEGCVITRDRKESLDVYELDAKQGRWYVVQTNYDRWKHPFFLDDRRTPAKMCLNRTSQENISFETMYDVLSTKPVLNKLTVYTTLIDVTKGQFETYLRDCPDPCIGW
T1 sequence (Q13510 22-142 limits assumed): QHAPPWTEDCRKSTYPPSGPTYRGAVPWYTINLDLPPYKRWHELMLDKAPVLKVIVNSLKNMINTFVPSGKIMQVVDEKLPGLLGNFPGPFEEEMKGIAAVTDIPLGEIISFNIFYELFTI
The data set is described as follows: AC activity in AML cell lines, fluorogenic AC substrate. Set-up: endogenous in cells; host or cells: HL60/VCR, OCI-AML2, THP-1 human AML cell lines. It counts as cell-based. The protocol: Ceramide analog SACLAC (FIG. 1A) inhibits AC activity in representative human AML cell lines (FIG. 1B) HL60/VCR and (FIG. 1C) OCI-AML2 after 24 hours. Activity was assessed by incubation with a fluorogenic AC substrate. Published AC inhibitor LCL204 is included for comparison.
The ordinate represents AC Activity as percent of control and the abscissa represents SACLAC or LCL204 concentration.

In data set [2] the test system is primary AML patient samples. The data set is described as follows: Colony formation of primary AML patient cells. As to conditions: over several days. Type of data set: cell-based, human. The protocol:
(§2) Multiple primary patient (Pt) AML cells were treated with various doses of SACLAC and assayed for apoptosis at 48 hours and colony formation over several days. […] The ordinate represents Colonies (as % of control) and the abscissa represents the concentration of SACLAC (μM). Unt=untreated; DMSO=dimethyl sulfoxide vehicle control.
(§3) Further, effects on patient samples strongly support the potential for clinical relevance of SACLAC. […] Based on the data presented here, we propose that use of SACLAC for treatment of AML is novel and clinically promising.

Data set [3] in a line: Maximum tolerated dose in vivo. Particulars: preliminary results (not shown). How it is done: Preliminary results (not shown) indicate a maximum tolerated dose in vivo of at least about 50 mg/kg body weight. Pharmacokinetic studies are in progress to measure any accumulation of SACLAC in the blood following treatment. Initial studies are based on doses of 20 or 40 mg/kg body weight.

For data set [4], the system named is S1P and ceramide in HL60/VCR and OCI-AML2. Description: Lipid metabolites by mass spectrometry in AML cell lines. Particulars: HL60/VCR and OCI-AML2, 24 hours. Type of data set: cell-based, human. The protocol:
Representative human AML cell lines (FIG. 3A; upper and lower panels) HL60/VCR and (FIG. 3B; upper and lower panels) OCI-AML2 were treated with SACLAC for 24 hours. Concentrations of lipid metabolites were determined by mass spectrometry. *, p<0.05; **, p<0.01 (Student's t-test). Upper panels represent Lipid in pmol/mg protein and lower panels represent Ceramide in pmol/mg protein.
We also characterized lipid changes in response to SACLAC treatment in order to provide further evidence of potent AC inhibition (FIGS. 3A-3B). […] Thus, the inhibitor blocks a common mechanism of ceramide detoxification in AML and is likely to provide therapeutic benefit by facilitating ceramide accumulation and apoptotic death of these proliferative cells.

Data set [5] in a line: Solubility in vehicles for i.v. drug delivery. Type of data set: physicochemical.
Data set [6] concerns primary AML patient samples. The data set is described as follows: Apoptosis in primary AML patient cells. It counts as cell-based, human. As to conditions: 48 hours, nutrient- and growth factor-rich culture. How it is done:
as §2, §3

The test system of another data set is Kasumi-3. Description: Cell viability, panel of AML cell lines. Particulars: Homo sapiens, Kasumi-3 cells. Type of data set: cell-based. How it is done: as §1
(§4) Two representative human-derived AML cell lines, HL60/VCR and OCI-AML2, are shown. These studies have been expanded to a large panel of additional human AML cell lines (n=30, Table 1).

In a further data set the test system is HL60/ABTR. The data set is described as follows: Cell viability, panel of AML cell lines. Type of data set: cell-based. As to conditions: Homo sapiens, HL-60, HL60/ABTR cells (drug resistant variant). How it is done:
as §1, §4

The next data set concerns Kasumi-1. The data set is described as follows: Cell viability, panel of AML cell lines. Type of data set: cell-based. Particulars: Homo sapiens, Kasumi-1 cells. How it is done:
as §1, §4

The test system of a further data set is KGI/ABTR. The data set is described as follows: Cell viability, panel of AML cell lines. Particulars: Homo sapiens, KGI/ABTR cells. It counts as cell-based. How it is done:
as §1, §4

Data set [7] has as its system HL60/VCR and OCI-AML2 AML cell lines. Description: Apoptosis in AML cell lines by flow cytometry. As to conditions: 48 hours, dose-dependent. Type of data set: cell-based, human. How it is done:
as §1, §4
In general terms: Flow cytometry measures light scatter and fluorescence of single cells or particles in a stream.

Entries after “also recorded” stand apart in the source; their conditions may differ. Like-named read-outs stand apart in the source and are kept apart here. A value given as a limit tells only on which side of the number the result lay.

For the compound `CCCCCCCCCCCCCCC[C@@H](O)[C@H](CO)NC(=O)CCl` [SACLAC, 2-chloro-N-((2S,3R)-1,3-dihydroxyoctadecan-2-yl)acetamide], the viability entry in data set [1] (HL60/VCR and OCI-AML2, MTS, 24 and 48 hours, dose-dependent) was “reduced viability”. The EC50 (in general, the midpoint of the concentration-response curve) came to 2270 nM in data set [1] (mean of AML cell lines, 24 hours, read-out: EC50 AML); 2600 nM in data set [1] (SACLAC: HL60/VCR, OCI-AML2, THP-1, SABRAC: HL60/VCR, OCI-AML2, order of cells not given, read-out: EC50, single AML cell lines (FIG. 4A, 4B)); 500 nM with Kasumi-3 (24 h, read-out: EC50 24 h); 700 nM in the data set with Kasumi-3 (48 h, read-out: EC50 48 h); 2500 nM with HL60/ABTR (24 h, read-out: EC50 24 h); 3000 nM in the data set with HL60/ABTR (48 h, read-out: EC50 48 h). The EC50 in the data set on Kasumi-1 (24 h, read-out: EC50 24 h) stood at 800 nM; in the data set with Kasumi-1 (48 h, read-out: EC50 48 h), 800 nM; with KGI/ABTR (24 h, read-out: EC50 24 h), 5400 nM; with KGI/ABTR (48 h, read-out: EC50 48 h), 4100 nM. For the same compound, the AC activity result on acid ceramidase (AC) (HL60/VCR and OCI-AML2, 24 hours) was “decreased AC activity at all tested doses; also recorded: nearly complete inhibition at nanomolar concentrations”. Further, on acid ceramidase (AC) (HL60/VCR, THP-1 and OCI-AML2 cells, 24 h), the “AC activity, compared with LCL204” value is reported as “inhibited AC activity more potently than LCL204”. Besides, the colony formation result in [2] is given as “substantially reduced colony formation”. In addition, in data set [3], the MTD – broadly, the highest dose tested that stayed within the study's limit of toxicity – was at least 50 mg/kg. Moreover, in data set [4], the S1P result is “significantly reduced S1P”. The ceramide result in [4] is on record as “increased ceramide”. The “solubility in vehicles for i.v. drug delivery” value in data set [5] was “low solubility”. Further, the apoptosis result in data set [6] was “effectively induced apoptosis”; in data set [7], “induced apoptosis”.

These data come from US11426371B2, “Compositions and methods for treating cancer” (University of Virginia Patent Foundation, priority 2017, dated 2022).
